Starred links: 1 amine or outer side, 2 acyl side, 3 side chain; linkers in the order of their positions; H or OH if unused. Non-standard residues stand in square brackets, D forms with d. Residues, ends and D or L forms follow the SMILES beside them. γGlu = O=C(O)[C@H](CCC(=O)[*:2])N[*:1]
Tests used:
[1] = Stability of peptides in serum; type: in vitro ADME
[2] = Stability to hydrolysis in human plasma; type: in vitro ADME
[3] = Stability to hydrolysis in mouse plasma; type: in vitro ADME
[4] = system: TSU prostate cancer cell line; test: LD50 for killing against TSU prostate cancer cell line; type: cell-based, human; conditions: TSU prostate cancer cell line (non-PSMA producing)
From the text: The prodrugs are hydrolyzed by PSMA and release the corresponding Asp- or Glu-containing thapsigargin analogs, or the thapsigargin analog itself, and also lack potent cytotoxicity when not metabolized by PSMA. Non-PSMA producing TSU-Pr1 human prostate cancer cell line is exposed to each of the PSMA prodrugs at doses that are approximately 50-times the LD50 for the corresponding free thapsigargin analog.

Compound: NC(=O)CC[C@H](NC(=O)[C@H](CC(=O)O)NC(=O)CC[C@H](NC(=O)CC[C@H](NC(=O)CC[C@H](N)C(=O)O)C(=O)O)C(=O)O)C(=O)O [Glu*Glu*Glu*Asp-Gln] ({γGlu-γGlu-γGlu}-Asp-Gln-OH; N-terminus and C-terminus assumed)
- stability in serum [1]: high stability

Compound: N[C@@H](CC(=O)O)C(=O)N[C@@H](CCC(=O)N[C@@H](CCC(=O)N[C@@H](CC(=O)O)C(=O)N[C@@H](CCC(=O)O)C(=O)O)C(=O)O)C(=O)O [Asp-Glu*Glu*Asp-Glu] (H-D[γGlu][γGlu]DE-OH; N-terminus and C-terminus assumed)
- stability to hydrolysis in plasma [2]: completely stable
- stability to hydrolysis in plasma [3]: completely stable

Compound: N[C@@H](CCC(=O)N[C@@H](CCC(=O)N[C@@H](CCC(=O)N[C@@H](CC(=O)O)C(=O)N[C@@H](CCC(=O)O)C(=O)O)C(=O)O)C(=O)O)C(=O)O [Glu*Glu*Glu*Asp-Glu] ({γGlu-γGlu-γGlu}-Asp-Glu-OH; N-terminus and C-terminus assumed)
- stability in serum [1]: high stability

Compound: 12ADT-Glu [Composition 12ADT-Glu]
- LD50 value for killing [4]: approximately 50 nM
